In patent US6676950B2, “Neurokinin receptor antagonists and methods of use thereof for inhibiting HIV infection” (The Children's Hospital of Philadelphia, priority 2001, dated 2004):

How the values were obtained:
[1] = test system: luciferase-encoding HIV virions pseudotyped with ADA Env (CCR5-dependent); test: Pseudotype reporter virus entry assay, ADA Env; assay type: cell-based
Method: Pseudotype reporter virus entry assay: Recombinant luciferase-encoding HIV virions pseudotyped with Env from the M-tropic ADA (CCR5-dependent) and amphitropic murine leukemia virus (MLV) (CCR5-independent) were used to study HIV infection of MDM incubated with or without CP-96,345 or R-113281. The Env-deleted luciferase reporter plasmid PNL-Luc-E-R+ (kindly provided by N. Landau) was cotransfected into 293T cells along with plasmids encoding the ADA or MLV Env genes as previously described (31). Supernatants were collected 48 h later, assayed for p24^Gag antigen content, and frozen at −80° C. MDM (2.5×10^5 cells/well, in 48-well plates) were incubated overnight with or without CP-96,345 or R-113281 and then infected using 20 ng of p24^Gag antigen equivalent of each pseudotype HIV per well, in the presence of polybrene (7.5 μg/ml). At 72 h postinfection, the cells were lysed in 150 μl of 0.5% Triton-X-100 in PBS. Lysate (50 μl) was mixed with an equal volume of luciferase substrate (Promega, […].) and luciferase activity was determined in a microtiter plate luminometer (Dynex Technologies, Chantilly, Va.). The results were expressed as relative light units (RLU) in CP-96,345-treated or R-113281-treated and infected MDM as a percentage of that in untreated and infected MDM.

X4 strain (UG024) = test: HIV RT activity in MDM infected with X4 strain; assay type: cell-based; conditions: 8 days after infection
Method: (§1) Based upon their differential use of the major HIV co-receptors, HIV isolates have been referred to as R5, X4 or R5X4 strains, respectively (29). The M-tropic (macrophage-tropic) R5 prototype strains (Bal and ADA), dual tropic strain (89.6) and X4 primary isolate (UG024), were obtained from the NIH AIDS Reagent Program. Primary M-tropic isolates (BL-6 and CSF-6) were isolated from the blood and cerebrospinal fluid cells, respectively, of a subject with AIDS. […] The cells were also incubated with SP and/or anti-SP antibody. In this case, SP was incubated with (1:1000 dilution in 10% FCS DMEM) or without anti-SP antibody at room temperature for 10 min and then the mixture was added to the cell cultures for 2 h. When the cells were treated with the combination of CP-96,345 and SP, or CP-96,345, SP and anti-SP antibody, CP-96,345 was incubated with the cell culture for 10 min and then SP was added to the MDM or CP-96,345, SP and anti-SP (1:1000 in 10% FCS DMEM) were incubated for 10 min at room temperature and the mixture was incubated with the MDM for 2 h before infection with HIV. Untreated MDM served as controls. The cells were treated prior to, during, and throughout the infection. […]

R5X4 strain (89.6) = test: HIV RT activity in MDM infected with R5X4 strain; assay type: cell-based; conditions: 8 days after infection
Method: as §1

HIV Bal strain = test: HIV RT activity in culture supernatants of HIV Bal strain-infected MDM; assay type: cell-based, HIV-1
Method: The cells were also incubated with SP and/or anti-SP antibody. In this case, SP was incubated with (1:1000 dilution in 10% FCS DMEM) or without anti-SP antibody at room temperature for 10 min and then the mixture was added to the cell cultures for 2 h. When the cells were treated with the combination of CP-96,345 and SP, or CP-96,345, SP and anti-SP antibody, CP-96,345 was incubated with the cell culture for 10 min and then SP was added to the MDM or CP-96,345, SP and anti-SP (1:1000 in 10% FCS DMEM) were incubated for 10 min at room temperature and the mixture was incubated with the MDM for 2 h before infection with HIV. Untreated MDM served as controls. The cells were treated prior to, during, and throughout the infection.
HIV Infection: After 2 h incubation with or without the reagents described above, the cells were infected with equal amounts of cell-free HIV based on p24 antigen content (20 ng/10^6 cells) overnight, and then washed to remove unbound virus. Fresh media containing SP and/or CP-96,345 or anti-SP antibody were added to the MDM as described above. The culture media and the reagents were replaced twice weekly. The culture supernatants were harvested for HIV reverse transcriptase (RT) activity determinations. After HIV infection, the MDM were incubated for 8 to 12 days. At the termination of the experiments, cellular RNA was extracted for assessment of HIV gag gene expression using RT-PCR or real time RT-PCR assays.
The HIV RT activity assay was carried out based on the technique of Willey et al. (30) with modification (22).

CCR5 = test: Flow cytometry of CCR5 receptor expression on MDM; assay type: cell-based, human
Method: (§2) The cells were removed from the culture plate and then resuspended in 100 μl of phosphate-buffered saline (PBS). After incubation with 20 μl of either anti-CCR5-FITC or anti-CXCR4-FITC or anti-CD4-FITC or anti-CD14-FITC for 45 min at 4° C., the cells were washed twice with PBS and fixed with 1% paraformaldehyde in PBS. Fluorescein-conjugated control antibodies were isotype-matched IgG. Fluorescence was analyzed on an EPICS-Elite flow cytometer (Beckman-Coulter Electronics, Hialeah, Fla.).

[2] = test system: R5 strains (Bal, ADA, CSF-6 and BL-6); test: HIV RT activity in MDM infected with R5 strains; assay type: cell-based; conditions: 8 days after infection
Method: as §1

[3] = test system: CD4, CXCR4 and CD14 receptors; test: Flow cytometry of CD4, CXCR4 and CD14 receptor expression on MDM; assay type: cell-based, human; conditions: incubated overnight (24 h); direct immunofluorescence
Method: as §2

| SMILES | ADA Env-pseudotyped HIV infection of MDM (luciferase activity) ([1]; R-113281 10^−7 and 10^−6 overnight pretreatment) | replication of X4 strain (HIV RT activity) (X4 strain (UG024); R-113281 10^−6 M) | replication of R5X4 strain (HIV RT activity) (R5X4 strain (89.6); R-113281 10^−6 M) | HIV RT activity (HIV Bal strain; MDM treated 2 hours, HIV-1 M-tropic strain Bal, day 8 post-infection) | CCR5 protein expression (percentage of CCR5 positive cells, flow cytometry) (CCR5; R-113281 10^−6 M, 24 hours) | replication of R5 strains (HIV RT activity) ([2]; R-113281 10^−6 M) | CD4, CXCR4 and CD14 receptor expression on MDM [3] | ADA Env-pseudotyped HIV infection of MDM (luciferase activity) ([1]; CP-96,345 10^−8 and 10^−7 M overnight pretreatment) | replication of X4 strain UG024 (HIV RT activity) (X4 strain (UG024); CP-96,345 10^−7M) | replication of R5X4 strain 89.6 (HIV RT activity) (R5X4 strain (89.6); CP-96,345 10^−7M) | viral replication as determined by HIV RT activity (HIV Bal strain; 10^−7M, 8 days after infection, vs HIV infection control) | effect on SP-enhanced HIV replication in MDM (HIV RT activity and HIV gag mRNA levels) (HIV Bal strain; SP 10^−6M, CP-96,345 10^−6M, anti-SP antibody 1:1000 dilution, 12 days after infection) | HIV replication relative to HIV infection control (HIV Bal strain; in presence of SP 10^−6M, CP-96,345 10^−6M and/or anti-SP antibody 1:1000, 12 days) | CCR5 receptor expression on MDM (percentage positive cells) (CCR5; incubated overnight (24 h), direct immunofluorescence) | replication of R5 strains (HIV RT activity) ([2]; CP-96,345 10^−7M) |
| --- | --- | --- | --- | --- | --- | --- | --- | --- | --- | --- | --- | --- | --- | --- | --- |
| COc1cc(C(=O)N2CCO[C@](CCN3CCC4(CC3)c3ccccc3C[S@+]4[O-])(c3ccc(Cl)c(Cl)c3)C2)cc(OC)c1OC.Cl [R-113281] | inhibited | not affected | inhibited to a lesser extent | significantly reduced | inhibited | inhibited | – | – | – | – | – | – | – | – | – |
| COc1ccccc1CN[C@H]1C2CCN(CC2)[C@H]1C(c1ccccc1)c1ccccc1 [CP-96,345, [2S,3S)-cis-2-(diphenylmethyl)-N-[(2-methoxyphenyl)-methyl]-1-azabicyclo [[2.2.2]-octan-3-amine]] | – | – | – | – | – | – | only CCR5 expression was down-regulated | inhibited | not affected | inhibited to a lesser extent | inhibited | abrogated | down-regulated HIV replication to a level that was even lower than that of the HIV infection control | down-regulated | inhibited |
